Here are results for four compounds from patent US9757370B2, “Opsin-binding ligands, compositions and methods of use” (priority 2011, dated 2017).

The test relates to P23H opsin. The test is described as follows: Rhodopsin purification and regeneration: pigment formation from P23H opsin after compound treatment of P23H cells. Particulars: for Fold Increase Over Control (480-500 nm absorbance): P23H cells treated 48 hours, regenerated with 9-cis-retinal (20 μM), fold increase over the DMSO control.

As to `C[C@H]1CCCC(C)(C)[C@@H]1[C@@H](O)c1ccc2c(c1)CCN(C(N)=O)C2` [Compound 5, 6-((R)-hydroxy((1R,6S)-2,2,6-trimethylcyclohexyl)methyl)-3,4-dihydroisoquinoline-2(1H)-carboxamide], the “Fold Increase Over Control (480-500 nm absorbance)” value (“Fold Increase Over Control” below) (10 μM) turned out to be 1.9 fold.
With `CC(=O)/C=C/C1=C(C)CCCC1(C)C` [β-ionone, reference compound], the “Fold Increase Over Control” value (20 μM) was 2.4 fold. For the same compound, the “regeneration of 500 nm absorbing pigment upon treatment with retinal (FIG. 1)” value (P23H opsin treated with 20 μM during mutant protein production, relative to vehicle (DMSO) alone) is reported as “increase in regeneration of 500 nm absorbing pigment”.
With `CC1=C(C(O)c2ccc3c(c2)CCN(C(N)=O)C3)C(C)(C)CCC1` (centres unmarked) [Compound 2, 6-(hydroxy(2,6,6-trimethylcyclohex-1-enyl)methyl)-3,4-dihydroisoquinoline-2(1H)-carboxamide], the “Fold Increase Over Control” value (10 μM) came to 2.5 fold.
On the same count and under the same terms, the result for `C[C@H]1CCCC(C)(C)[C@@H]1[C@H](O)c1ccc2c(c1)CCN(C(N)=O)C2` [Compound 3, 6-((S)-hydroxy((1R,6S)-2,2,6-trimethylcyclohexyl)methyl)-3,4-dihydroisoquinoline-2(1H)-carboxamide] reads 1.5 fold.
